Results from patent US20260325533A1, “CDK INHIBITOR COMPOUNDS” (ALEKSIA THERAPEUTICS, INC., priority 2023, published 2026).
Where two headings read alike, the source gives them in different places. Blank lines part the entries; values can stand above or below the compound they belong to.

Experiments:
CDK2/CCNE1 = CDK2/CCNE1 (Homo sapiens, UniProt P24941); assay: CDK2 homogeneous time-resolved fluorescence (HTRF) kinase assay; type: biochemical; details: CDK2/CCNE
Method: (§1) A CDK homogeneous time-resolved fluorescence (HTRF) assay was used to assess the potency of the compounds described herein.
(§2) To an untreated 384-well microtiter plate (ProxiPlate) was added 100 nL 100×test compound in DMSO and 5 μL 2×CDK enzyme in assay buffer (50 mM HEPES, 1 mM EGTA, 10 mM MgCl2, 0.01% Tween 20, 2 mM DTT). The plate was centrifuged at 800 RPM for 1 min then incubated for 20 min at 23 °C. 2.5 μL per well of 4×ATP and 2.5 μL 4×ULight™-eIF4E-binding protein 1 (Thr37/46) Peptide substrate were added to all wells. After addition, the plates were centrifuged at 800 RPM for 1 min. The plates were incubated at 23 °C for 60 min. 5 μL per well 4×EDTA solution were added to each well to stop the reaction. 5 μL 4×LANCE Ultra Europium-anti-phospho-eIF4E-binding protein 1 (Thr37/46) antibody were added to each well and the plate was centrifuged for 1 min at 800 RPM. The plate was incubated for 60 min at 23 °C. Fluorescence was read at 340 nm excitation and 665 nm emission on an En Vision 2105 fluorescence reader. The final concentrations of reagents in the activity assay were 3 nM CDK2/CCNE1, 1 mM ATP, 50 nM ULight™-eIF4E-binding protein 1 (Thr37/46) Peptide substrate, 1% DMSO, 10 mM EDTA, and 2 nM LANCE Ultra Europium-anti-phospho-eIF4E-binding protein 1 (Thr37/46).
(§3) Dose-response titrations were conducted by using an 11-point, half-logarithmic serial dilution scheme typically starting at 10 μM. Signals were reported as fluorescence units at 665 nm or the ratio of fluorescence units at 665 nm/fluorescence units at 615 nm. Signals are referred to below as “Lance signals”.
(§4) Using this assay, the IC50 values of example compounds were determined. Table 3 illustrates the IC50 for various Example compounds of Formula IA. Table 4 illustrates the IC50 for various other Example compounds of Formula I. ND=not determined.

CDK1/CCNB1 = CDK1/CCNB1 (Homo sapiens, UniProt P06493); assay: CDK1 homogeneous time-resolved fluorescence (HTRF) kinase assay; type: biochemical; details: CDK1/CCNB
Method: as §1
as §2, with “were 0.5” for “were 3”, “nM CDK1/CCNB1,” for “nM CDK2/CCNE1,”
as §3, §4

[1] = 25-250 nM marked x, read-out: CDK2/CCNE IC50 25-250 nM
[2] = <25 nM, read-out: CDK2/CCNE IC50 <25 nM
[3] = <25 nM, read-out: CDK2/CCNE IC50, <25 nM

Sequence of CDK1/CCNB1 (P06493 whole entry): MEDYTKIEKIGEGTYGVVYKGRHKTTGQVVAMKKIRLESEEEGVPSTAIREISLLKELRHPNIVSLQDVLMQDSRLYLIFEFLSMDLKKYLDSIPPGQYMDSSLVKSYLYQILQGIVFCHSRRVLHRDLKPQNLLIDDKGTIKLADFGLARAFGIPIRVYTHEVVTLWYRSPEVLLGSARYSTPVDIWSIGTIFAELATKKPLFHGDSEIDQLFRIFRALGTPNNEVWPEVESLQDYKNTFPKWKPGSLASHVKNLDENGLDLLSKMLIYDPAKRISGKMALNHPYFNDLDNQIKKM
Sequence of CDK1/CCNB1 (P14635 whole entry partner): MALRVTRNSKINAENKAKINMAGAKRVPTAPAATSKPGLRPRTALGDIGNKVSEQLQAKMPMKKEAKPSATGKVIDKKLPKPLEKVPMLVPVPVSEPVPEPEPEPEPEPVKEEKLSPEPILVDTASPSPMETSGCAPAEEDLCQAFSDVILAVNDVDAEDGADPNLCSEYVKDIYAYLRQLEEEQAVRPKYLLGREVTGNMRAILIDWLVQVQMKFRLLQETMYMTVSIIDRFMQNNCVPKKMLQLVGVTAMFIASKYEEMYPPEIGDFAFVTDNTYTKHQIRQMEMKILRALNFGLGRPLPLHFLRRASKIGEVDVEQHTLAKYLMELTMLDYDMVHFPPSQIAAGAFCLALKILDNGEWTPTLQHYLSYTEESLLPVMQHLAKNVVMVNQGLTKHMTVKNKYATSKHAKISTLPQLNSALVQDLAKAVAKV

- IC50 (CDK2/CCNE1; x = IC50 <25 nM, read-out: CDK2/CCNE IC50 (<25 nM)): < 25 nM
SMILES: CCS(=N)(=O)c1ccc(Nc2cc3c(C#Cc4ccc5c(c4)NC(=O)C54CC4)nccc3cn2)cc1 (racemic) [Ex 377, 6'-((7-((4-(ethylsulfonimidoyl)phenyl)amino)-2,6-naphthyridin-1-yl)ethynyl)spiro[cyclopropane-1,3'-indolin]-2'-one]

- IC50 (CDK2/CCNE1; [1]): 25 to 250 nM
SMILES: CNC(=O)C1CCCN(c2nccc3cnc(NC4CCN(S(C)(=O)=O)CC4)cc23)C1 (single isomer, unassigned) [Ex 31, N-methyl-1-(7-((1-(methylsulfonyl)piperidin-4-yl)amino)-2,6-naphthyridin-1-yl)piperidine-3-carboxamide]

- IC50 (CDK2/CCNE1; [1]): 25 to 250 nM
SMILES: CCC1(CC)C(=O)Nc2cc(C#Cc3nccc4cnc(Nc5ccc(S(=N)(=O)C6CCC6)cc5OC)cc34)ccc21 (single isomer, unassigned) [Ex 272, 6-((7-((4-(cyclobutanesulfonimidoyl)-2-methoxyphenyl)amino)-2,6-naphthyridin-1-yl)ethynyl)-3,3-diethylindolin-2-one]

- IC50 (CDK1/CCNB1; 25-250 nM marked x, read-out: CDK1/CCNB IC50 25-250 nM): 25 to 250 nM
SMILES: N=S(=O)(c1ccc(Nc2cc3c(C#Cc4ccc5c(c4)NC(=O)C54CC4)nccc3cn2)c(F)c1)C1COC1 (single isomer, unassigned) [Ex 276, 6'-((7-((2-fluoro-4-(oxetane-3-sulfonimidoyl)phenyl)amino)-2,6-naphthyridin-1-yl)ethynyl)spiro[cyclopropane-1,3'-indolin]-2'-one]

- IC50 (CDK2/CCNE1; [2]): < 25 nM
SMILES: CCC1(CC)C(=O)Nc2cc(C#Cc3nccc4cnc(Nc5ccc(S(C)(=N)=O)cc5C(F)F)cc34)ccc21 (single isomer, unassigned) [Ex 295, 6-((7-((2-(difluoromethyl)-4-(S-methylsulfonimidoyl)phenyl)amino)-2,6-naphthyridin-1-yl)ethynyl)-3,3-diethylindolin-2-one]

- IC50 (CDK2/CCNE1; [2]): < 25 nM
SMILES: CCC1(CC)C(=O)Nc2cc(C#Cc3nccc4cnc(Nc5ccc(S(=N)(=O)C6CC6)cc5OC)cc34)ccc21 (single isomer, unassigned) [Ex 300, 6-((7-((4-(cyclopropanesulfonimidoyl)-2-methoxyphenyl)amino)-2,6-naphthyridin-1-yl)ethynyl)-3,3-diethylindolin-2-one]

- IC50 (CDK2/CCNE1; [1]): 25 to 250 nM
SMILES: CCC1(CC)C(=O)Nc2cc(C#Cc3nccc4cnc(Nc5ccc(S(=N)(=O)C6CC(F)(F)C6)cc5F)cc34)ccc21 (single isomer, unassigned) [Ex 302, 6-((7-((4-(3,3-difluorocyclobutane-1-sulfonimidoyl)-2-fluorophenyl)amino)-2,6-naphthyridin-1-yl)ethynyl)-3,3-diethylindolin-2-one]

- IC50 (CDK1/CCNB1; <25 nM, read-out: CDK1/CCNB IC50 <25 nM): < 25 nM
SMILES: N=S(=O)(c1ccc(Nc2cc3c(C#Cc4ccc5c(c4)NC(=O)C54CC4)nccc3cn2)cc1)C1CC1 (single isomer, unassigned) [Ex 307, 6'-((7-((4-(cyclopropanesulfonimidoyl)phenyl)amino)-2,6-naphthyridin-1-yl)ethynyl)spiro[cyclopropane-1,3'-indolin]-2'-one]

- IC50 (CDK2/CCNE1; [2]): < 25 nM
SMILES: CCC1(CC)C(=O)Nc2cc(C#Cc3nccc4cnc(Nc5ccc(S(=N)(=O)CC)cc5OC)cc34)ccc21 (single isomer, unassigned) [Ex 309, 3,3-diethyl-6-((7-((4-(ethylsulfonimidoyl)-2-methoxyphenyl)amino)-2,6-naphthyridin-1-yl)ethynyl)indolin-2-one]

- IC50 (CDK2/CCNE1; [2]): < 25 nM
SMILES: COc1cc(S(C)(=N)=O)ccc1Nc1cc2c(C#Cc3ccc4c(c3)NC(=O)C43CCC3)nccc2cn1 (single isomer, unassigned) [Ex 314, 6'-((7-((2-methoxy-4-(S-methylsulfonimidoyl)phenyl)amino)-2,6-naphthyridin-1-yl)ethynyl)spiro[cyclobutane-1,3'-indolin]-2'-one]

- IC50 (CDK2/CCNE1; [2]): < 25 nM
SMILES: CCC1(CC)C(=O)Nc2cc(C#Cc3nccc4cnc(Nc5ccc(S(=N)(=O)C6COC6)cc5OC)cc34)ccc21 (single isomer, unassigned) [Ex 318, 3,3-diethyl-6-((7-((2-methoxy-4-(oxetane-3-sulfonimidoyl)phenyl)amino)-2,6-naphthyridin-1-yl)ethynyl)indolin-2-one]

- IC50 (CDK2/CCNE1; [2]): < 25 nM
SMILES: CCC1(CC)C(=O)Nc2cc(C#Cc3nccc4cnc(Nc5ccc(S(C)(=N)=O)cc5OC)cc34)ccc21 (single isomer, unassigned) [Ex 320, 3,3-diethyl-6-((7-((2-methoxy-4-(S-methylsulfonimidoyl)phenyl)amino)-2,6-naphthyridin-1-yl)ethynyl)indolin-2-one]

- IC50 (CDK2/CCNE1; [1]): 25 to 250 nM
SMILES: CCC1(CC)C(=O)Nc2cc(C#Cc3nccc4cnc(Nc5ccc(S(=N)(=O)C(C)C)cc5OC)cc34)ccc21 (single isomer, unassigned) [Ex 341, 3,3-diethyl-6-((7-((2-methoxy-4-(propan-2-ylsulfonimidoyl)phenyl)amino)-2,6-naphthyridin-1-yl)ethynyl)indolin-2-one]

- IC50 (CDK2/CCNE1; [3]): < 25 nM
SMILES: Cc1c(-c2nccc3cnc(Nc4ccc(S(=N)(=O)NC5CCC5)cc4)cc23)ccc2c1cnn2CC(O)(C(F)(F)F)C(F)(F)F (single isomer, unassigned) [Ex 690, N-cyclobutyl-4-((5-(4-methyl-1-(3,3,3-trifluoro-2-hydroxy-2-(trifluoromethyl)propyl)-1H-indazol-5-yl)-2,6-naphthyridin-3-yl)amino)benzenesulfonimidamide]

- IC50 (CDK2/CCNE1; [3]): < 25 nM
SMILES: Cc1c(-c2nccc3cnc(Nc4ccc(S(=N)(=O)Nc5ccccc5)cc4)cc23)ccc2c1cnn2CC(O)(C(F)(F)F)C(F)(F)F (single isomer, unassigned) [Ex 693, 4-((5-(4-methyl-1-(3,3,3-trifluoro-2-hydroxy-2-(trifluoromethyl)propyl)-1H-indazol-5-yl)-2,6-naphthyridin-3-yl)amino)-N-phenylbenzenesulfonimidamide]

- IC50 (CDK2/CCNE1; [1]): 25 to 250 nM
SMILES: CS(=O)(=O)N1CCC(Nc2cc3c(N4CCOCC4)nccc3cn2)CC1 [Ex 30, N-(1-(methylsulfonyl)piperidin-4-yl)-5-morpholino-2,6-naphthyridin-3-amine]

- IC50 (CDK2/CCNE1; [1]): 25 to 250 nM
SMILES: CC(=O)N1CCN(c2nccc3cnc(NC4CCN(S(C)(=O)=O)CC4)cc23)CC1 [Ex 58, 1-(4-(7-((1-(methylsulfonyl)piperidin-4-yl)amino)-2,6-naphthyridin-1-yl)piperazin-1-yl)ethan-1-one]

- IC50 (CDK2/CCNE1; [1]): 25 to 250 nM
SMILES: CS(=O)(=O)N1CCC(Nc2cc3c(-c4ccc(C#N)nc4)nccc3cn2)CC1 [Ex 79, 5-(7-((1-(methylsulfonyl)piperidin-4-yl)amino)-2,6-naphthyridin-1-yl)picolinonitrile]

- IC50 (CDK2/CCNE1; [1]): 25 to 250 nM
SMILES: COC(=O)c1ccc(Nc2cc3c(C4=CCCCC4)nccc3cn2)cc1 [Ex 101, methyl 4-((5-(cyclohex-1-en-1-yl)-2,6-naphthyridin-3-yl)amino)benzoate]

- IC50 (CDK2/CCNE1; [1]): 25 to 250 nM
SMILES: O=C(Oc1ccc(F)cc1)c1ccc(Nc2cc3c(C4=CCCCC4)nccc3cn2)cc1 [Ex 254, 4-fluorophenyl 4-((5-(cyclohex-1-en-1-yl)-2,6-naphthyridin-3-yl)amino)benzoate]

- IC50 (CDK2/CCNE1; >250 nM, read-out: CDK2/CCNE IC50, >250 nM): > 250 nM
SMILES: CS(=O)(=O)c1ccc(Nc2cc3c(C#Cc4cccnc4O)nccc3cn2)cc1 [Ex 902, 3-((7-((4-(methylsulfonyl)phenyl)amino)-2,6-naphthyridin-1-yl)ethynyl)pyridin-2-ol]
